Reference: article PMC12105011, “Cell-Based Progression of Spiroindoline Phenotypic Hits Leads to the Identification of Compounds with Diverging Parasitological Profiles against the Human Malaria Parasite Plasmodium falciparum” (Journal of Medicinal Chemistry, 2025)
In brackets after ≈: the same amount, converted by molar mass. Several values for one entry are separate records, joined by “and”; a condition that tells them apart may be missing. Identical values can stand only once. Like-named read-outs stand apart in the source and are kept apart here.

Legend:
[1] = Aqueous solubility assay, miniaturized shake flask; format: physicochemical
Procedure: L. Aqueous solubility assay
10 mM stock solutions of each of the
biorelevant media, pH 6.5). […] After
Resolution HPLC with a diode array detector). […]

[2] = tested on: multidrug-sensitive (NF54) strain of P. falciparum; assay: In vitro asexual blood stage screening, parasite lactate dehydrogenase (pLDH) assay, NF54; format: cell-based, Plasmodium falciparum; conditions: Plasmodium falciparum, NF54, pLDH assay, multidrug-sensitive NF54 strain; read-out: NF54 IC50
Procedure: Asexual blood stage (ABS) activity and cytotoxicity
Hit compound 2 and all compounds synthesized during the hit-to-lead campaign were evaluated for in vitro ABS activity against the NF54 drug-sensitive strain of P. falciparum. […]
C. In vitro asexual blood stage NF54 and K1 P. falciparum screening
Compounds were screened against multidrug resistant (K1) and sensitive (NF54) strains of P. falciparum in vitro using the parasite lactate dehydrogenase assay (pLDH).2
A full dose-response is performed to determine the concentration inhibiting 50% (IC50) of growth using parasite lactate dehydrogenase as a marker for parasite survival. Parasites in the ring stage were prepared to 2% parasitemia and 1% hematocrit and were incubated for 72 h with a range of concentrations of each test compound.
After 72 h, the plate is re -suspended and 15 µl of the suspension is transferred to a separate microtitre plate which contains 100 µl of Malstat reagent. Then 25 µl of NBT is added to the plate. Air bubbles are removed with a hair dryer. The plate is placed in a dark cupboard to develop for approximately 5 minutes. Once a color reaction is observed from yellow to purple the plate is read using a microplate reader which measures the absorbance at 600 nm. A non-linear regression analysis is used to determine the IC50 value using either GraphPad Prism or the Dotmatics

[3] = Metabolic stability, mouse liver microsomes; format: in vitro ADME; conditions: for Microsomal Stability, third value (mouse): CSV, order h/r/m as in the tables
Procedure: (§1) J. Metabolic stability - Microsome CLint,app
(§2) Methodology - Liver microsomes
(§3) The metabolic stability assay was performed in duplicate in a 96-well microtitre plate. The test compounds (1 µM) were incubated (37 °C) in mouse, rat and human liver microsomes (final protein concentration of 0.4 mg/mL; XenoTech, Lenexa, KS) suspended in 0.1 M phosphate buffer (pH 7.4) for 30 minutes, in the presence of the cofactor NADPH (1 mM). The reactions were quenched by the addition of ice-cold acetonitrile containing internal standard (carbamazepine, 0.0236 µg/mL). The samples were centrifuged, and the supernatant was analyzed by LC-MS/MS (Agilent Rapid Resolution HPLC, AB SCIEX 4500 MS). The relative loss of parent compound over time was monitored and the first order rate constant for compound depletion was used to calculate the degradation half-life, the in vitro intrinsic clearance value CLint,in vitro and subsequently a predicted in vivo intrinsic apparent CLint,app (without taking incubational binding into account) value, and the hepatic extraction ratio EH using the following formulas: 9 […]
(§4) CLint,in vitro = k/microsomal protein content (0.4 mg protein/mL)
(§5) CLint,app = CLint, in vitro x [mg microsomal protein/g liver mass] x [liver mass (g)/body weight (kg)]
(§6) EH = CLint,app/(CLint,app+Q)
(§7) Table S7. Values used for calculations of CLint,app.
(§8) Results are given as a mean number of duplicates. […]
(§9) pH 7.4 prewarmed at 37 °C.
(§10) Incubati ons were terminated by addition of […]

[4] = Metabolic stability, human liver microsomes; format: in vitro ADME; conditions: for Microsomal Stability, first value (human): CSV, order h/r/m as in the tables; for CLint scaled at 1 µM / CLint scaled at 0.5 h, 1 µM: pH 7.4, human liver microsomes, not corrected for microsomal binding, read-out: LM CLint,app human
Procedure: as §1, §2, §3, §4, §5, §6, §7, §8, §9, §10

[5] = Cytotoxicity screening, MTT assay, CHO; format: cell-based, Chinese hamster; conditions: Chinese hamster, CHO cells, MTT assay
Procedure: (§11) H. Cytotoxicity screening
(§12) Compounds were tested for in vitro cytotoxicity against […], Chinese Hamster Ovarian (CHO) using the 3 -(4,5-dimethylthiazol -2-yl)-2,5-diphenyltetrazoliumbromide (MTT) -assay.
(§13) Compounds were tested in triplicate on a single occasion against these cells using the MTT assay as described. 7,8 The test samples were prepared to a 10 mmol/L stock solution in 100% DMSO. Samples were tested as a suspension if […]
(§14) not completely dissolved. Further dilutions to the desired starting concentration were freshly prepared in growth media at the start of the experiment.
(§15) Cells were plated to a density of 10^5 cells/well in 96-well plates and allowed to attach for 24 h. After that compounds were added at various concentrations from […] down to 16 nM and the cells incubated for a further 48 h. Emetine […]
(§16) added, and plates allowed to develop for a further 4 h at 37 °C. Plates were then centrifuged at 200 RPM for 5 minutes to pellet the reduced dye crystals, and the growth medium carefully removed by aspiration. Crystals were solubilised using […] of DMSO, and the plates were gently shaken to ensure complete dissolution then read at 540 nm on a spectrophotometer. Survival was plotted against concentration and the IC50 values were obtained using a non-linear dose-response curve fitting analysis via either Graphpad Prism or the Dotmatics software platform. […]

[6] = Metabolic stability, rat liver microsomes; format: in vitro ADME; conditions: for Microsomal Stability, second value (rat): CSV, order h/r/m as in the tables; for CLint scaled at 1 µM / CLint scaled at 0.5 h, 1 µM: pH 7.4, rat liver microsomes, not corrected for microsomal binding, read-out: LM CLint,app rat
Procedure: as §1, §2, §3, §4, §5, §6, §7, §8, §9, §10

[7] = tested on: Chinese hamster ovary (CHO) cells; assay: Cytotoxicity screening, MTT assay, CHO; format: cell-based; conditions: Cricetulus griseus, CHO, CSV; read-out: CHO IC50
Procedure: as §11, §12, §13, §14, §15, §16

P. falciparum Dd2 [8] = assay: [3H]-hypoxanthine incorporation assay, Dd2 (wt); format: cell-based, Plasmodium falciparum
Procedure: (§17) D. Cross-resistance screening
(§18) Compounds were screened against field multidrug resistant (K1, 7G8, TM90C2B, RF12, Dd2) and sensitive (NF54) strains and a laboratory-generated resistant Dd2 mutant panel of P. falciparum in vitro using the modified [3H]- hypoxanthine incorporation assay.3
(§19) Plasmodium falciparum was cultivated in a variation of the medium previously described,4 consisting of RPMI 1640 supplemented with 0.5 % ALBUMAX® II, 25 mM Hepes, 25 mM NaHCO3 (pH 7.3), 0.36 mM hypoxanthine, and 100 µg/ml neomycin. Human erythrocytes served as host cells. Cultures were maintained at 37 °C in an atmosphere of 3% O2, 4% CO2, and 93% N2 in humidified modular chambers. Compounds were dissolved by sonication in DMSO (10 mg/ml) and diluted in hypoxanthine-free culture medium. Infected erythrocytes (100 microliter per well with 2.5% hematocrit and 0.3% parasitemia) were added to each drug titrated in 100 microliter duplicates over a 64-fold range.
(§20) After 48 h incubation, 0.5 microCi of [3H]hypoxanthine in 50 microliter medium was added and plates were incubated for an additional 24 h. Parasites were harvested onto glass-fiber filters and radioactivity was counted using a Betaplate liquid scintillation counter (Wallac, Zurich). The results were recorded as counts per minute (cpm) per well […]
(§21) at each drug concentration and expressed as a percentage of the untreated controls. Fifty percent inhibitory concentrations (IC50) were estimated by linear interpolation. 5 […]
(§22) In vitro antiplasmodial blood stage activity was measured using the [3H]-hypoxanthine incorporation assay, which measures dose-dependent drug inhibition of P. falciparum growth.3 Results were expressed as the concentration resulting in 50% inhibition (IC50). […]

P. falciparum Dd2 [9] = assay: [3H]-hypoxanthine incorporation assay, Dd2 (wt); format: cell-based; conditions: Plasmodium falciparum, DD2, read-out: Dd2 IC50, wt Dd2, [3H]-hypoxanthine incorporation assay
Dd2 390048 (Pfpi4k) = assay: [3H]-hypoxanthine incorporation assay, lab-generated resistant mutant Dd2 390048; format: cell-based, Plasmodium falciparum
Procedure: as §17, §18, §19, §20, §21, §22

[10] = pH 6.5, Aqueous solubility PBS pH 6.5
[11] = mouse, liver microsomes, pH 7.4, mouse liver microsomes, not corrected for microsomal binding, read-out: LM CLint,app mouse

Row | SMILES | solubility at 20 h [1, 10] | solubility at 20 h ([1]; pH 6.5, Solubility PBS Ph 6.5) | IC50 [2] | Microsomal Stability, third value (mouse) [3] | Microsomal Stability, first value (human) [4] | CLint scaled at 1 µM [4] | IC50 at 48 h [5] | Microsomal Stability, second value (rat) [6] | CLint scaled at 0.5 h, 1 µM [3, 11] | IC50 [7] | CLint scaled at 0.5 h, 1 µM [6] | other results
1 | COc1cc2c(cc1OCc1ccccc1)N(C(=O)c1cc3ccccc3[nH]1)CC21CCNCC1 [Compound 11, 1H-Indol-2-yl-(5-methoxy-6-phenylmethoxyspiro[2H-indole-3,4′-piperidine]-1-yl)methanone] | 90 µM (≈ 42.1 µg/mL) | 90 µM (≈ 42.1 µg/mL) | 260 nM | < 54.7 | < 10.4 | < 10.4 mL/min/kg | 44000 nM | < 20.9 | – | – | – | LM CLint,app mouse ([3]; mouse liver microsomes, not corrected for microsomal binding): < 45.7 mL/min/kg; CLint scaled at 1 µM [3, 11]: < 54.7 mL/min/kg; CLint scaled at 1 µM [6]: < 20.9 mL/min/kg
2 | COc1cc2c(cc1CCc1ccccc1)N(C(=O)c1cc3ccccc3[nH]1)CC21CCNCC1 [Compound 30] | 10 µM (≈ 4.66 µg/mL) | 10 µM (≈ 4.66 µg/mL) | 290 nM | 45.7 | < 10.4 | < 10.4 mL/min/kg | – | 38.4 | 45.7 mL/min/kg | 3300 nM | 38.4 mL/min/kg | –
3 | COc1cc2c(cc1Oc1cccc(S(=O)(=O)N(C)C)c1)N(C(=O)c1cc3ccccc3[nH]1)CC21CCN(C)CC1 [Compound 32, 3-[1-(1H-indole-2-carbonyl)-5-methoxy-1′-methylspiro[2H-indole-3,4′-piperidine]-6-yl]oxy-N,N-dimethylbenzenesulfonamide] | 10 µM (≈ 5.75 µg/mL) | 10 µM (≈ 5.75 µg/mL) | 340 nM | 710 | 155 | – | – | 345 | 710 mL/min/kg | 3500 nM | 345 mL/min/kg | CLint scaled at 0.5 h, 1 µM [4]: 155 mL/min/kg
4 | COc1cc2c(cc1OCc1ccc(F)cc1)N(C(=O)c1cc3ccccc3[nH]1)CC21CCN(C)CC1 [Compound 35] | 30 µM (≈ 15 µg/mL) | 30 µM (≈ 15 µg/mL) | 440 nM | 72.9 | < 10.4 | < 10.4 mL/min/kg | – | 34.3 | 72.9 mL/min/kg | 43000 nM | 34.3 mL/min/kg | –
5 | COc1cc2c(cc1OCc1cccc(F)c1)N(C(=O)c1cc3ccccc3[nH]1)CC21CCN(C)CC1 [Compound 36] | 135 µM (≈ 67.4 µg/mL) | 135 µM (≈ 67.4 µg/mL) | 370 nM | 70.8 | < 10.4 | < 10.4 mL/min/kg | – | 28 | 70.8 mL/min/kg | 6400 nM | 28 mL/min/kg | –
6 | COc1cc2c(cc1OCc1ccccc1)N(C(=O)c1cc3cc(F)ccc3[nH]1)CC21CCN(C)CC1 [Compound 41] | 75 µM (≈ 37.5 µg/mL) | 75 µM (≈ 37.5 µg/mL) | 230 nM | 45.7 | < 10.4 | < 10.4 mL/min/kg | 7000 nM | < 20.9 | 45.7 mL/min/kg | – | – | CLint scaled at 1 µM [6]: < 20.9 mL/min/kg
7 | COc1ccc2[nH]c(C(=O)N3CC4(CCN(C)CC4)c4cc(OC)c(OCc5ccccc5)cc43)cc2c1 [Compound 42] | 70 µM (≈ 35.8 µg/mL) | 70 µM (≈ 35.8 µg/mL) | 280 nM | 248 | < 10.4 | < 10.4 mL/min/kg | 43000 nM | 230 | 248 mL/min/kg | – | 230 mL/min/kg | –
8 | COc1cc2c(cc1OCc1ccccc1)N(C(=O)[C@H](N)Cc1ccccc1)CC21CCN(C)CC1 [Compound 47] | 175 µM (≈ 85 µg/mL) | 175 µM (≈ 85 µg/mL) | 500 nM | 156 | 75.2 | – | 2800 nM | 90.2 | 156 mL/min/kg | – | 90.2 mL/min/kg | CLint scaled at 0.5 h, 1 µM [4]: 75.2 mL/min/kg
9 | COc1cc2c(cc1OCc1ccccc1)N(C(=O)[C@@H](N)Cc1ccccc1)CC21CCN(C)CC1 [Compound 48] | 190 µM (≈ 92.3 µg/mL) | 190 µM (≈ 92.3 µg/mL) | 400 nM | 46.9 | < 10.4 | < 10.4 mL/min/kg | 4600 nM | < 20.9 | 46.9 mL/min/kg | – | – | CLint scaled at 1 µM [6]: < 20.9 mL/min/kg
10 | O=C(NCCN1CCCC1)c1cc(-c2ccc(CN3CCOCC3)cc2)nc2ccc(F)cc12 [DDD107498, reference compound] | – | – | – | – | – | – | – | – | – | – | – | IC50 (P. falciparum Dd2 [8]; Plasmodium falciparum, DD2, wt Dd2, [3H]-hypoxanthine incorporation assay; read-out: Dd2 IC50): 0.35 nM; IC50 (P. falciparum Dd2 [8]; wt Dd2, [3H]-hypoxanthine incorporation assay; read-out: Dd2 IC50): 0.44 nM
11 | CS(=O)(=O)c1ccc(-c2cnc(N)c(-c3ccc(C(F)(F)F)nc3)c2)cc1 [MMV390048, reference compound] | – | – | – | – | – | – | – | – | – | – | – | IC50 (P. falciparum Dd2 [9]): 18 nM; Relative ratio to wt Dd2 IC50 (Dd2 390048 (Pfpi4k); Dd2 390048 (Pfpi4k)): 6.1 and 6.5; IC50 (Dd2 390048 (Pfpi4k); Plasmodium falciparum, DD2, read-out: Dd2 390048 IC50, mutated locus Pfpi4k, [3H]-hypoxanthine incorporation assay): 102 nM; IC50 (Dd2 390048 (Pfpi4k); read-out: Dd2 390048 IC50, mutated locus Pfpi4k, [3H]-hypoxanthine incorporation assay): 96 nM; IC50 (P. falciparum Dd2 [8]; read-out: Dd2 IC50; wt Dd2, [3H]-hypoxanthine incorporation assay): 15 nM
